Test results taken from PubChem BioAssay AID2060496 (Molecular Pharmacology Branch, DTP, NCI, 2025).
Several values for one entry are separate records, joined by “and”; a condition that tells them apart may be missing. Equal values may be shown once.

System: 276233-004-R-J1-PDC complex spheroid viability
Assay: Anticancer human tumor 276233-004-R-J1-PDC patient-derived colon adenocarcinoma cell line growth inhibition [GQUAD]
Details: for viability, T/C: stronger effect = lower value; active = viability on the fitted dose curve at most 10% of control; inactive = the rest
Text: DNA G-quadruplex Stabilizer Agents in Combinations in Complex Spheroids
A high-throughput screen of multi-cell type tumor spheroids was designed to identify active combinations of DNA G-quadruplex stabilizer agents and targeted small molecules. Complex spheroids include a stromal component modeled by human endothelial cells (HUVEC) and fibroblasts modeled by human mesenchymal stem cells (MSCs). The concentration ranges selected for each drug and investigational agent were based upon clinically achievable concentrations if the clinical Cmax of the agent was known.
Compounds. The drugs and investigational agents: pidnarulex (CX-5461; NSC782164), APTO-253 (NSC789042), BRACO-19 (NSC847499), peposertib (NSC802822), ceralasertib (NSC780249), elimusertib (NSC800525), camonsertib (NSC841442), AZD-1390 (NSC803789), olaparib (NSC753686), talazoparib (NSC767125), ART-558 (NSC835418), sotorasib (NSC818433), MRTX-1133 (NSC836407), SN-38 (NSC673596), topotecan (NSC609699), etoposide (NSC141540), doxorubicin (NSC123127), gemcitabine (NSC613327), 5-fluorouracil (NSC19893), paclitaxel (NSC125973), vemurafenib (NSC761431), panobinostat (NSC761190), R-306465 (JNJ-16241199; NSC773264), adavosertib (NSC754352), TP-3654 (NSC805149), carboplatin (NSC241240), KSQ-4279 (NSC840948), and staurosporine (NSC755774) were obtained from the National Cancer Institute (NCI) Developmental Therapeutics Program Chemical Repository (34). The FDA-approved anticancer drug set is available from the NCI Developmental Therapeutics Program. […] The stock solutions were prepared in dimethyl sulfoxide (DMSO, Sigma-Aldrich, St. Louis, MO, cat. D2650) at 800-fold the tested concentration and stored at -70 degrees C prior to their use. All drugs and investigational agents were tested over a range starting from a high concentration at or near the clinical Cmax and decreasing in half-log increments. If the clinical Cmax for an agent had not been determined, the highest concentration tested was 10 microM.
2.3 Cell Culture. All cells were maintained in an incubator at 37 degrees C and 5% CO2 with 95% humidity. The PDC lines were cultured according to standard operating procedures established by the NCI PDMR. All PDCs were thawed and cultured in Matrigel-coated flasks prepared with a working solution of 1X Ham's F-12 nutrient mix, without supplementation (Invitrogen, cat. 11765054), 100 U/mL penicillin-streptomycin (Invitrogen, cat. 15140122), and 2.5% Matrigel (Corning Inc., cat. 354248) for the first three passages. The 857933-349-R-J2-PDC line was cultured in 6C/Colon 1B media, which includes advanced DMEM/F-12 (Thermo Fisher Scientific, cat. 12634028), 10 mM HEPES (Thermo Fisher Scientific, cat. 15630080), 1X GlutaMAX supplement (Thermo Fisher Scientific, cat. 35050061), 0.1 mg/mL primocin (InvivoGen, cat. ant-pm-2), 10% defined fetal bovine serum, heat inactivated (HyClone Laboratories Inc., cat. SH30070.03HI), 50% L-WRN conditioned media (ATCC, cat. CRL-3276), 1.25 mM N-Acetyl-L-cysteine (Sigma-Aldrich, cat. A9165), 10 mM nicotinamide (Sigma-Aldrich, cat. N0636), 1X B-27 supplement (Thermo Fisher Scientific, cat. 17504044), 1X N-2 supplement (Thermo Fisher Scientific, cat. 17502048), 10 microM Y-27632 dihydrochloride (Tocris Bioscience, cat. 1254), and 50 ng/mL human EGF recombinant protein (Thermo Fisher Scientific, cat. PHG0311). The 485176-168-R4-J1-PDC line was cultured in Panc media, which includes all 6C/Colon 1B media components plus 100 ng/mL human FGF-10 (Thermo Fisher Scientific, cat. 100-26), 500 nM SB-431542 (Selleckchem, cat. S1067), and gastrin (Tocris, cat. 3006).
[…]

[1] = curve of first compound, second compound 0.0316 µM
[2] = curve of first compound, second compound 0.1 µM
[3] = curve of first compound, second compound 0.316 µM
[4] = curve of first compound, second compound 1 µM
[5] = curve of first compound, second compound 3.16 µM
[6] = curve of first compound, second compound 10 µM
[7] = second compound 0.0316 µM, first compound 0.0316 µM
[8] = second compound 0.0316 µM, first compound 0.1 µM
[9] = second compound 0.0316 µM, first compound 0.316 µM
[10] = second compound 0.0316 µM, first compound 1 µM
[11] = second compound 0.0316 µM, first compound 3.16 µM
[12] = second compound 0.0316 µM, first compound 10 µM
[13] = second compound 0.1 µM, first compound 0.0316 µM
[14] = second compound 0.1 µM, first compound 0.1 µM
[15] = second compound 0.1 µM, first compound 0.316 µM
[16] = second compound 0.1 µM, first compound 1 µM
[17] = second compound 0.1 µM, first compound 3.16 µM
[18] = second compound 0.1 µM, first compound 10 µM
[19] = second compound 0.316 µM, first compound 0.0316 µM
[20] = second compound 0.316 µM, first compound 0.1 µM
[21] = second compound 0.316 µM, first compound 0.316 µM
[22] = second compound 0.316 µM, first compound 1 µM
[23] = second compound 0.316 µM, first compound 3.16 µM
[24] = second compound 0.316 µM, first compound 10 µM
[25] = second compound 1 µM, first compound 0.0316 µM
[26] = second compound 1 µM, first compound 0.1 µM
[27] = second compound 1 µM, first compound 0.316 µM
[28] = second compound 1 µM, first compound 1 µM
[29] = second compound 1 µM, first compound 3.16 µM
[30] = second compound 1 µM, first compound 10 µM
[31] = second compound 3.16 µM, first compound 0.0316 µM
[32] = second compound 3.16 µM, first compound 0.1 µM
[33] = second compound 3.16 µM, first compound 0.316 µM
[34] = second compound 3.16 µM, first compound 1 µM
[35] = second compound 3.16 µM, first compound 3.16 µM
[36] = second compound 3.16 µM, first compound 10 µM
[37] = second compound 10 µM, first compound 0.0316 µM
[38] = second compound 10 µM, first compound 0.1 µM
[39] = second compound 10 µM, first compound 0.316 µM
[40] = second compound 10 µM, first compound 1 µM
[41] = second compound 10 µM, first compound 3.16 µM
[42] = second compound 10 µM, first compound 10 µM
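Note: spheroids exposed to drugs for seven days.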

COc1ccc([C@@H](O)c2cc(-c3ncnc4cc(N5CCOCC5)ccc34)c(F)cc2Cl)nn1 + Cc1cnc(CNC(=O)c2c(=O)c3ccc(N4CCCN(C)CC4)nc3n3c2sc2ccccc23)cn1
1.77 µM: IC50 [5]
0.709 µM: IC50 [6]
4.4 µM: IC50 [3]
> 10 µM: IC50 [2]
inactive: viability, T/C [7] 75.2% | viability, T/C [8] 81.5% | viability, T/C [9] 79.3% | viability, T/C [10] 68.8% | viability, T/C [11] 60.6% | viability, T/C [12] 48.4% | viability, T/C [13] 78.7% | viability, T/C [14] 73.9% | viability, T/C [15] 70.2% | viability, T/C [16] 73.8% | viability, T/C [17] 69.6% | viability, T/C [18] 55.1% | viability, T/C [19] 74.4% | viability, T/C [20] 87.7% | viability, T/C [21] 83.9% | viability, T/C [22] 71% | viability, T/C [23] 55.1% | viability, T/C [24] 39.3% | viability, T/C [25] 73.6% | viability, T/C [26] 77.9% | viability, T/C [27] 75.2% | viability, T/C [28] 63% | viability, T/C [29] 47.4% | viability, T/C [30] 33.7% | viability, T/C [31] 69.2% | viability, T/C [32] 69.3% | viability, T/C [33] 70% | viability, T/C [34] 56.2% | viability, T/C [35] 43.1% | viability, T/C [36] 34% | viability, T/C [37] 65% | viability, T/C [38] 58.1% | viability, T/C [39] 70% | viability, T/C [40] 43.9% | viability, T/C [41] 43.2% | viability, T/C [42] 30.9%
8.71 µM: IC50 [1]
2.53 µM: IC50 [4]

CC1COCCN1c1cc(C2(O)CC3CCC(C2)O3)c2cnn(-c3ccn[nH]3)c2n1 (stereo unspecified)
3.92 µM and 6.86 µM and 7.56 µM: IC50 (curve of compound)
inactive: viability, T/C (compound 0.0316 µM) 98% and 89.3% and 74.2% | viability, T/C (compound 0.1 µM) 74.3% and 88.6% and 73.8% | viability, T/C (compound 0.316 µM) 65.7% and 71% and 68.6% | viability, T/C (compound 1 µM) 59.9% and 61.2% and 68.8% | viability, T/C (compound 3.16 µM) 56.3% and 54.3% and 63.9% | viability, T/C (compound 10 µM) 41.6% and 47.4% and 45.6%

C#Cc1c(F)ccc2cc(O)cc(-c3ncc4c(N5CC6CCC(C5)N6)nc(OCC56CCCN5CC(F)C6)nc4c3F)c12 (stereo unspecified) + Cc1cnc(CNC(=O)c2c(=O)c3ccc(N4CCCN(C)CC4)nc3n3c2sc2ccccc23)cn1
active: viability, T/C [42] 5.43%
7.14 µM: IC50 [4]
1.55 µM: IC50 [5]
1.43 µM: IC50 [6]
inactive: viability, T/C [7] 115% | viability, T/C [8] 86.6% | viability, T/C [9] 101% | viability, T/C [10] 77.5% | viability, T/C [11] 83% | viability, T/C [12] 57.8% | viability, T/C [13] 95.2% | viability, T/C [14] 77.7% | viability, T/C [15] 75.3% | viability, T/C [16] 75% | viability, T/C [17] 70.7% | viability, T/C [18] 60.5% | viability, T/C [19] 84.1% | viability, T/C [20] 73% | viability, T/C [21] 85.7% | viability, T/C [22] 80.8% | viability, T/C [23] 69.5% | viability, T/C [24] 59.6% | viability, T/C [25] 84.2% | viability, T/C [26] 71.4% | viability, T/C [27] 75.5% | viability, T/C [28] 73% | viability, T/C [29] 62.8% | viability, T/C [30] 44.4% | viability, T/C [31] 65.2% | viability, T/C [32] 76.2% | viability, T/C [33] 66.9% | viability, T/C [34] 53.8% | viability, T/C [35] 44.5% | viability, T/C [36] 41% | viability, T/C [37] 64.1% | viability, T/C [38] 73.5% | viability, T/C [39] 67.7% | viability, T/C [40] 45.8% | viability, T/C [41] 43.2%
> 10 µM: IC50 [1] | IC50 [2] | IC50 [3]
